Where two headings read alike, the source gives them in different places.
What was measured:
[1] = test system: Tetranychus urticae; assay: Tetranychus urticae - spray test, OP-resistant (TETRUR); format: in vivo; settings: for Emax at 500 g/ha: Tetranychus urticae, 144 h, TETRUR, 6 dat, read-out: % efficacy; for efficacy (spider mites killed): 500 g/ha, bean leaf discs, after 6 days
Description: Tetranychus urticae—Spray Test, OP-Resistant
(§1) Solvents: 78.0 parts by weight of acetone • • 1.5 parts by weight of dimethylformamide
(§2) Emulsifier: alkylaryl polyglycol ether
After 6 days, the efficacy in % is determined. 100% means that all the spider mites have been killed; 0% means that no spider mites have been killed.
Tetranychus urticae—Spray Test; OP Resistant (TETRUR)
After the desired period of time (dat), the efficacy in % is determined. 100% means that all the spider mites have been killed; 0% means that none of the spider mites have been killed.

[2] = test system: Myzus persicae; assay: Myzus persicae - spray test (MYZUPE); format: in vivo; settings: for Emax at 100 g/ha / pest or weed control at 500 g/ha: Myzus persicae; for Emax at 100 g/ha: MYZUPE, 100 g of ai/ha, read-out: % efficacy; for pest or weed control at 500 g/ha: foliar, read-out: efficacy (aphids killed); for pest or weed control at 500 g/ha / efficacy (aphids killed): Chinese cabbage leaf discs, after 5-6 days, 500 g/ha
Description: Myzus persicae—Spray Test
Solvents: 78 parts by weight of acetone • • 1.5 parts by weight of dimethylformamide
as §2
After 5-6 days, the efficacy in % is determined. 100% means that all the aphids have been killed; 0% means that no aphids have been killed.
Myzus persicae—Spray Test (MYZUPE)
as §1
(§3) After the desired period of time (dat), the efficacy in % is determined. 100% means that all the aphids have been killed; 0% means that no aphids have been killed.

[3] = test system: Myzus persicae; assay: Myzus persicae - oral test (MYZUPE O); format: in vivo; settings: for Emax at 0.8 ppm / Emax at 4 ppm / pest or weed control at 20 ppm: Myzus persicae, po, 120 h; for Emax at 0.8 ppm / Emax at 4 ppm: MYZUPE O, 5 dat, read-out: % efficacy; for pest or weed control at 20 ppm / efficacy (aphids killed): after 5 days, 20 ppm; for pest or weed control at 20 ppm: read-out: efficacy (aphids killed)
Description: Solvent: 100 parts by weight of acetone
50 μl of the active compound preparation are transferred into microtitre plates and made up to a final volume of 200 μl with 150 μl of IPL41 insect medium (33%+15% sugar). Subsequently, the plates are sealed with parafilm, which a mixed population of green peach aphids (Myzus persicae) within a second microtitre plate is able to puncture and imbibe the solution through it.
After 5 days, the efficacy in % is determined. 100% means that all the aphids have been killed; 0% means that no aphids have been killed.
Myzus persicae—Oral Test (MYZUPE O)
as §3

[4] = log P by reversed-phase HPLC (C18), EEC directive 79/831 Annex V.A8, neutral range; format: physicochemical; settings: pH 7.8; for chromatographic logP: reversed-phase HPLC column (C18), read-out: Logp [n]
Description: a) The log P values reported in the tables and preparation examples above were determined in accordance with EEC directive 79/831 Annex V.A8 by HPLC (High Performance Liquid Chromatography) using a reversed-phase column (C18). Temperature 43° C. The calibration is effected with unbranched alkan-2-ones (having 3 to 16 carbon atoms), for which the log P values are known. […] The log P values for the acidic range (as log P [a]) and/or for the neutral range (as log P [n]) were stated in the tables and preparation examples above.

[5] = test system: Boophilus microplus; assay: Boophilus microplus - injection test; format: in vivo; settings: 20 μg/animal, engorged adult female cattle ticks, after 7 days
Description: Boophilus microplus—Injection Test
Solvent: dimethyl sulphoxide
To produce a suitable preparation of active compound, 10 mg of active compound are mixed with 0.5 ml of solvent and the concentrate is diluted with solvent to the desired concentration.
1 μl of the active compound solution is injected into the abdomen of 5 engorged adult female cattle ticks (Boophilus microplus). The animals are transferred into dishes and kept in a climate-controlled room.
Efficacy is assessed after 7 days by laying of fertile eggs. Eggs which are not visibly fertile are stored in a climate-controlled cabinet until the larvae hatch after about 42 days. An efficacy of 100% means that none of the ticks has laid any fertile eggs; 0% means that all the eggs are fertile.

[6] = neutral range, HPLC C18, 43° C.

Compound | Emax at 0.8 ppm [3] [%] | Logp [n] [4, 6] | efficacy (aphids killed) [2] [%] | efficacy (aphids killed) [3] [%] | also measured
O=C(Nc1cccnc1)c1c[nH]cn1 [Ex. No. 13 WO2011/009804, reference compound] | 0 |  |  |  | Emax at 500 g/ha [1]: 0%; Emax at 100 g/ha ([2]; 144 h, 6 dat): 0%; Emax at 4 ppm [3]: 0%
Cc1nc(C(=O)Nc2cccnc2)c[nH]1 [Ex. No. 14 WO2011/009804, reference compound] | 0 |  |  |  | Emax at 500 g/ha [1]: 0%; Emax at 100 g/ha ([2]; 5/6 dat): 0%; Emax at 4 ppm [3]: 0%
CN(C(=O)c1cnc(N2CCOCC2)n1C)c1cccnc1 [I-1-009, N,1-Dimethyl-2-(morpholin-4-yl)-N-(pyridin-3-yl)-1H-imidazole-5-carboxamide] | 70 |  |  |  | efficacy (spider mites killed) [1]: 90%; Emax at 500 g/ha [1]: 90%; chromatographic logP [4, 6]: 0.85; Emax at 100 g/ha ([2]; 144 h, 6 dat): 70%; pest or weed control at 500 g/ha [2]: 100%; pest or weed control at 20 ppm [3]: 100%
CSc1ccn(-c2ncc(C(=O)N(C)c3cccnc3)n2C)n1 [I-1-012] |  | 1.57 | 90 | 100 | 
CN(C(=O)c1cnc(N2CCCCC2)n1C)c1cccnc1 [I-1-013] |  | 1.53 | 100 | 100 | 
CCN(C(=O)c1cnc(-n2cc(C(F)(F)F)cn2)n1C)c1cccnc1 [I-1-014] |  | 2.09 | 90 | 100 | 
CCN(C(=O)c1cnc(-n2cc(C#N)cn2)n1C)c1cccnc1 [I-1-015] | 100 |  |  |  | efficacy (spider mites killed) [1]: 90%; Emax at 500 g/ha [1]: 90%; chromatographic logP [4, 6]: 1.42; pest or weed control at 500 g/ha [2]: 90%; pest or weed control at 20 ppm [3]: 100%; Emax at 4 ppm [3]: 100%
CC1CCN(c2ncc(C(=O)N(C)c3cccnc3)n2C)CC1 [I-1-016] |  | 1.87 | 90 | 100 | 
CN(C(=O)c1cnc(N2CCC(C#N)CC2)n1C)c1cccnc1 [I-1-017] | 100 |  |  |  | chromatographic logP [4, 6]: 1.16; Emax at 100 g/ha ([2]; 120 h, 5 dat): 90%; pest or weed control at 500 g/ha [2]: 100%; pest or weed control at 20 ppm [3]: 100%; Emax at 4 ppm [3]: 100%
CN(C(=O)c1cnc(N2CCC(c3ccccc3)CC2)n1C)c1cccnc1 [I-1-018] |  | 2.38 | 100 | 100 | 
CN(C(=O)c1cnc(N2CCCC2)n1C)c1cccnc1 [I-1-019] |  |  | 100 | 100 | Logp [n] [4]: 1.19
CC1CC(C)CN(c2ncc(C(=O)N(C)c3cccnc3)n2C)C1 (stereo not drawn) [I-1-020] |  | 2.21 | 100 | 100 | 
Cc1cnn(-c2ncc(C(=O)N(C)c3cccnc3)n2C)c1 [I-1-021] |  | 1.29 | 100 | 100 | 
CN(C(=O)c1cnc(-n2cnc(C#N)n2)n1C)c1cccnc1 [I-1-031] |  | 1.22 |  |  | efficacy (laying of fertile eggs) [5]: 80%

— patent US10501441B2, “Substituted imidazolylcarboxamides as pesticides” (BAYER CROPSCIENCE AKTIENGESELLSCHAFT, priority 2016, dated 2019)
